Results: PubChem BioAssay (NCI)
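Step 1: Grow cells in 96-well plates. Step 2: Expose to compound for 48 hours at 5 concentrations. Step 3: Interpolate endpoints linearly; if unreached, use highest concentration. The concentration for full growth arrest is given as TGI.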

How the values were obtained:
Experiment in all cases: NCI tumour cell line growth inhibition, 48 h
A498 renal = test system: A498 renal
OVCAR-8 ovarian = test system: OVCAR-8 ovarian
SF-539 CNS = test system: SF-539 CNS
HL-60(TB) leukemia = test system: HL-60(TB) leukemia
MOLT-4 leukemia = test system: MOLT-4 leukemia
IGROV1 ovarian = test system: IGROV1 ovarian
A549 NSCLC = test system: A549 NSCLC
OVCAR-3 ovarian = test system: OVCAR-3 ovarian
NCI/ADR-RES ovarian = test system: NCI/ADR-RES ovarian
MCF7 breast = test system: MCF7 breast
MALME-3M melanoma = test system: MALME-3M melanoma
MDA-MB-435 = test system: MDA-MB-435
NCI-H226 lung = test system: NCI-H226 lung
MDA-MB-231 breast = test system: MDA-MB-231 breast
SR leukemia = test system: SR leukemia
TK-10 renal = test system: TK-10 renal
786-0 renal = test system: 786-0 renal
ACHN renal = test system: ACHN renal
UO-31 renal = test system: UO-31 renal
SNB-75 CNS = test system: SNB-75 CNS
PC-3 prostate = test system: PC-3 prostate
SF-268 CNS = test system: SF-268 CNS
OVCAR-4 ovarian = test system: OVCAR-4 ovarian
DU-145 prostate = test system: DU-145 prostate
CAKI-1 renal = test system: CAKI-1 renal
LOX IMVI melanoma = test system: LOX IMVI melanoma
OVCAR-5 ovarian = test system: OVCAR-5 ovarian
NCI-H23 lung = test system: NCI-H23 lung
K-562 leukemia = test system: K-562 leukemia
HCT-116 colon = test system: HCT-116 colon
UACC-257 melanoma = test system: UACC-257 melanoma
EKVX NSCLC = test system: EKVX NSCLC
SNB-19 CNS = test system: SNB-19 CNS
RXF 393 renal = test system: RXF 393 renal
UACC-62 melanoma = test system: UACC-62 melanoma
HOP-92 NSCLC = test system: HOP-92 NSCLC
SK-OV-3 ovarian = test system: SK-OV-3 ovarian
T-47D breast = test system: T-47D breast
HOP-62 NSCLC = test system: HOP-62 NSCLC
NCI-H522 lung = test system: NCI-H522 lung
SK-MEL-28 melanoma = test system: SK-MEL-28 melanoma
U251 CNS = test system: U251 CNS
COLO 205 colon = test system: COLO 205 colon
HCC-2998 colon = test system: HCC-2998 colon
M14 melanoma = test system: M14 melanoma
SN12C renal = test system: SN12C renal
KM12 colon = test system: KM12 colon
SK-MEL-2 melanoma = test system: SK-MEL-2 melanoma
CCRF-CEM leukemia = test system: CCRF-CEM leukemia
NCI-H460 lung = test system: NCI-H460 lung
SF-295 CNS = test system: SF-295 CNS
HT29 colon = test system: HT29 colon
HCT-15 colon = test system: HCT-15 colon
SW-620 colon = test system: SW-620 colon
MDA-N = test system: MDA-N
BT-549 breast = test system: BT-549 breast
SK-MEL-5 melanoma = test system: SK-MEL-5 melanoma
HS 578T breast = test system: HS 578T breast

O=c1[nH]c(=O)n(COCCOCc2ccccc2)cc1Nc1ccccc1
TGI (A498 renal): > 100 µM
TGI (OVCAR-8 ovarian): > 100 µM
TGI (SF-539 CNS): > 100 µM
TGI (HL-60(TB) leukemia): > 100 µM
TGI (MOLT-4 leukemia): > 100 µM
TGI (IGROV1 ovarian): > 100 µM
TGI (A549 NSCLC): > 100 µM
TGI (OVCAR-3 ovarian): > 100 µM
TGI (NCI/ADR-RES ovarian): > 100 µM
TGI (MCF7 breast): > 100 µM
TGI (MALME-3M melanoma): > 100 µM
TGI (MDA-MB-435): > 100 µM
TGI (NCI-H226 lung): > 100 µM
TGI (MDA-MB-231 breast): > 100 µM
TGI (SR leukemia): > 100 µM
TGI (TK-10 renal): > 100 µM
TGI (786-0 renal): > 100 µM
TGI (ACHN renal): > 100 µM
TGI (UO-31 renal): > 100 µM
TGI (SNB-75 CNS): > 100 µM
TGI (PC-3 prostate): > 100 µM
TGI (SF-268 CNS): > 100 µM
TGI (OVCAR-4 ovarian): > 100 µM
TGI (DU-145 prostate): > 100 µM
TGI (CAKI-1 renal): > 100 µM
TGI (LOX IMVI melanoma): > 100 µM
TGI (OVCAR-5 ovarian): > 100 µM
TGI (NCI-H23 lung): > 100 µM
TGI (K-562 leukemia): > 100 µM
TGI (HCT-116 colon): > 100 µM
TGI (UACC-257 melanoma): > 100 µM
TGI (EKVX NSCLC): > 100 µM
TGI (SNB-19 CNS): > 100 µM
TGI (RXF 393 renal): > 100 µM
TGI (UACC-62 melanoma): > 100 µM
TGI (HOP-92 NSCLC): > 100 µM
TGI (SK-OV-3 ovarian): > 100 µM
TGI (T-47D breast): > 100 µM
TGI (HOP-62 NSCLC): > 100 µM
TGI (NCI-H522 lung): > 100 µM
TGI (SK-MEL-28 melanoma): > 100 µM
TGI (U251 CNS): > 100 µM
TGI (COLO 205 colon): > 100 µM
TGI (HCC-2998 colon): > 100 µM
TGI (M14 melanoma): > 100 µM
TGI (SN12C renal): > 100 µM
TGI (KM12 colon): > 100 µM
TGI (SK-MEL-2 melanoma): > 100 µM
TGI (CCRF-CEM leukemia): > 100 µM
TGI (NCI-H460 lung): > 100 µM
TGI (SF-295 CNS): > 100 µM
TGI (HT29 colon): > 100 µM
TGI (HCT-15 colon): > 100 µM
TGI (SW-620 colon): > 100 µM
TGI (MDA-N): > 100 µM

Cc1cc(Cl)nc(Nc2nc3ccccc3[nH]2)n1
TGI (A498 renal): > 100 µM
TGI (OVCAR-8 ovarian): > 100 µM
TGI (SF-539 CNS): > 100 µM
TGI (HL-60(TB) leukemia): > 100 µM
TGI (IGROV1 ovarian): > 100 µM
TGI (A549 NSCLC): > 100 µM
TGI (OVCAR-3 ovarian): > 100 µM
TGI (NCI/ADR-RES ovarian): > 100 µM
TGI (MCF7 breast): > 100 µM
TGI (MALME-3M melanoma): > 100 µM
TGI (MDA-MB-435): > 100 µM
TGI (NCI-H226 lung): > 100 µM
TGI (MDA-MB-231 breast): > 100 µM
TGI (SR leukemia): > 100 µM
TGI (TK-10 renal): > 100 µM
TGI (786-0 renal): > 100 µM
TGI (ACHN renal): > 100 µM
TGI (UO-31 renal): > 100 µM
TGI (SNB-75 CNS): > 100 µM
TGI (PC-3 prostate): > 100 µM
TGI (SF-268 CNS): > 100 µM
TGI (OVCAR-4 ovarian): > 100 µM
TGI (DU-145 prostate): > 100 µM
TGI (BT-549 breast): > 100 µM
TGI (LOX IMVI melanoma): > 100 µM
TGI (OVCAR-5 ovarian): > 100 µM
TGI (NCI-H23 lung): > 100 µM
TGI (K-562 leukemia): > 100 µM
TGI (HCT-116 colon): > 100 µM
TGI (UACC-257 melanoma): > 100 µM
TGI (SNB-19 CNS): > 100 µM
TGI (RXF 393 renal): > 100 µM
TGI (UACC-62 melanoma): > 100 µM
TGI (HOP-92 NSCLC): > 100 µM
TGI (SK-OV-3 ovarian): > 100 µM
TGI (HOP-62 NSCLC): > 100 µM
TGI (NCI-H522 lung): 5.96 µM
TGI (SK-MEL-28 melanoma): > 100 µM
TGI (U251 CNS): > 100 µM
TGI (COLO 205 colon): > 100 µM
TGI (HCC-2998 colon): > 100 µM
TGI (M14 melanoma): > 100 µM
TGI (SN12C renal): > 100 µM
TGI (SK-MEL-2 melanoma): > 100 µM
TGI (CCRF-CEM leukemia): > 100 µM
TGI (NCI-H460 lung): > 100 µM
TGI (SF-295 CNS): > 100 µM
TGI (SK-MEL-5 melanoma): > 100 µM
TGI (HT29 colon): > 100 µM
TGI (HCT-15 colon): > 100 µM
TGI (SW-620 colon): > 100 µM
TGI (MDA-N): > 100 µM
TGI (HS 578T breast): > 100 µM
